Assay results published in patent publication US20250262247A1, “MICROGLIAL CELLS AS THERAPEUTIC TARGETS IN NEURODEVELOPMENTAL DISORDERS” (The Regents of the University of California, priority 2022, published 2025).

Test system: MGL
Assay: Phagocytosis assay with block of zymosan uptake
Format: cell-based, human
Details: 1 μM, 30 min prior to incubation with zymosan
Experimental: Phagocytosis Assay. Phagocytosis assay was performed according to the manufacturer's instructions with pHrodo™ Red Zymosan A BioParticles® (Life Technologies, Carlsbad, USA) conjugate for phagocytosis. Briefly, 20,000 MGL were plated on a 96-well tissue culture plate and incubated in M2 media [Neurobasal media supplemented with 2×Gem21 NeuroPlex, 1×NEAA, 1× Glutamax] containing fluorescently labeled zymosan particles (0.125 mg/ml) for 2 h at 37° C., 5% CO2. Fluorescence was measured with Tecan Infinite 200 PRO microplate reader (Life Sciences, Switzerland).
For experiments featuring block of zymosan uptake, cell monolayers were treated with 1 μM Cytochalasin D (Sigma-Aldrich) 30 min prior to incubation with zymosan.

With `C=C1[C@@H](C)[C@H]2[C@H](Cc3ccccc3)NC(=O)[C@]23[C@H](OC(C)=O)/C=C/[C@@](C)(O)C(=O)[C@@H](C)C/C=C/[C@H]3[C@@H]1O` [Cytochalasin D] the “Engulfment of zymosan particles” value was “reduced”.
